The values that follow come from patent publication US5180729A, “Use of sigma receptor antagonists for treatment of cocaine abuse” (Du Pont Merck Pharmaceutical Company, priority 1991, dated 1993).

The subject of this series is cocaine-induced motor activity. Kind of series: Cocaine-induced behavior and baseline motor activity, same animal system (haloperidol). Format: in vivo. The conditions noted are these: for Effect on baseline motor activity in the absence of cocaine (in words): same animal system as Ex. No. 504, cocaine-free animals. As for the experimental part:
Cocaine was administered to mice or rats and its effect in stimulating motor activity was quantified. The cocaine-stimulated motor activity was used to evaluate the effects of the sigma receptor antagonist in reducing this enhanced motor stimulation, i.e., counteracting the pharmacological effect of cocaine in the animal.

In the case of `O=C(CCCN1CCC(O)(c2ccc(Cl)cc2)CC1)c1ccc(F)cc1` [haloperidol], the “Effect on baseline motor activity in the absence of cocaine (in words)” value is “significantly depressed baseline motor activity”. For the same compound, where the note is “same animal system as Ex. No. 504”, the “Effect on cocaine-induced behavior (in words)” value is reported as “did not specifically inhibit cocaine-induced behavior”. Besides, the “Effect on baseline motor activity in the absence of cocaine (in words)” value (listed as Haloperidol) is listed as “adverse non-selective attenuation of normal motor activity”.
